Several values for one entry are separate records, joined by “and”; a condition that tells them apart may be missing. Identical values can stand only once. Toxic doses and inconclusive results are not listed. The calls were made as follows: active = survival T/C of 150% or more; inactive = T/C below 125% in these data.
System: P388 leukemia ip, CD2F1 mice, survival T/C
Assay: NCI In Vivo Anticancer Drug Screen. Data for tumor model P388 Leukemia (intraperitoneal) in CD2F1 (CDF1) mice
Conditions: endpoint: median survival time, higher = longer survival
How it was run: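 Mice carrying the transplanted tumor received test compound or vehicle. Survival was recorded in each group, and the value is the treated-group measurement divided by that of the vehicle-treated control group.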

[1] = dose: 50.0 mg/kg/injection, schedule: Q01DX009 (ip), vehicle: saline with Tween-80
[2] = dose: 100.0 mg/kg/injection, schedule: Q01DX009 (ip), vehicle: saline with Tween-80
[3] = dose: 200.0 mg/kg/injection, schedule: Q01DX009 (ip), vehicle: saline with Tween-80
[4] = dose: 60.0 mg/kg/injection, schedule: Q01DX005 (ip), vehicle: saline with Tween-80
[5] = dose: 120.0 mg/kg/injection, schedule: Q01DX005 (ip), vehicle: saline with Tween-80
[6] = dose: 400.0 mg/kg/injection, schedule: Q01DX009 (ip), vehicle: saline with Tween-80
[7] = dose: 25.0 mg/kg/injection, schedule: Q01DX005 (ip), vehicle: Klucel (hydroxypropylcellulose) (HPC)
[8] = dose: 50.0 mg/kg/injection, schedule: Q01DX005 (ip), vehicle: Klucel (hydroxypropylcellulose) (HPC)
[9] = dose: 100.0 mg/kg/injection, schedule: Q01DX005 (ip), vehicle: Klucel (hydroxypropylcellulose) (HPC)
[10] = dose: 50.0 mg/kg/injection, schedule: Q01DX009 (ip), vehicle: Klucel (hydroxypropylcellulose) (HPC)
[11] = dose: 100.0 mg/kg/injection, schedule: Q01DX009 (ip), vehicle: Klucel (hydroxypropylcellulose) (HPC)
[12] = dose: 200.0 mg/kg/injection, schedule: Q01DX009 (ip), vehicle: Klucel (hydroxypropylcellulose) (HPC)
[13] = dose: 100.0 mg/kg/injection, schedule: Q04DX003 (ip), vehicle: saline with Tween-80
[14] = dose: 200.0 mg/kg/injection, schedule: Q04DX003 (ip), vehicle: saline with Tween-80
[15] = dose: 12.5 mg/kg/injection, schedule: Q01DX009 (ip), vehicle: saline
[16] = dose: 25.0 mg/kg/injection, schedule: Q01DX009 (ip), vehicle: saline
[17] = dose: 50.0 mg/kg/injection, schedule: Q01DX009 (ip), vehicle: saline
[18] = dose: 100.0 mg/kg/injection, schedule: Q01DX009 (ip), vehicle: saline
[19] = dose: 50.0 mg/kg/injection, schedule: Q01DX005 (ip), vehicle: saline with Tween-80
[20] = dose: 100.0 mg/kg/injection, schedule: Q01DX005 (ip), vehicle: saline with Tween-80
[21] = dose: 200.0 mg/kg/injection, schedule: Q01DX005 (ip), vehicle: saline with Tween-80
[22] = dose: 100.0 mg/kg/injection, schedule: Q01DX001 (ip), vehicle: Klucel (hydroxypropylcellulose) (HPC)
[23] = dose: 200.0 mg/kg/injection, schedule: Q01DX001 (ip), vehicle: Klucel (hydroxypropylcellulose) (HPC)
[24] = dose: 400.0 mg/kg/injection, schedule: Q01DX001 (ip), vehicle: Klucel (hydroxypropylcellulose) (HPC)

Measured: T/C

ClCCCCCCOC1CCCCO1 (centres undefined)
inactive: [1] 110 % of control | [2] 106 % of control | [3] 97 % of control

COc1ccc(C(C#N)C(=O)C(=O)Nc2ccc(C)cc2C)cc1OC (centres undefined)
inactive: [4] 95 % of control | [5] 100 % of control

NC(=O)C(Cl)(Cl)Cl
inactive: [2] 100 % of control | [3] 99 % of control | [6] 99 % of control

COC1=C(C)C2CC(OC)OC3CC4CCCCC4(C)C(C1=O)C32C (centres undefined)
inactive: [7] 105 % of control | [8] 99 % of control | [9] 92 % of control

CC(=O)C1C(=O)C(=O)N(c2ccccc2C)C1=O (centres undefined)
inactive: [10] 105 % of control | [4] 103 % of control | [11] 107 % of control | [5] 100 % of control | [12] 110 % of control

CC(=O)OC1OC(=O)C(C)(C(C)=O)C1C (centres undefined)
inactive: dose: 12.5 mg/kg/injection, schedule: Q01DX005 (ip), vehicle: distilled water + alcohol 100 % of control | dose: 25.0 mg/kg/injection, schedule: Q01DX005 (ip), vehicle: distilled water + alcohol 100 % of control

CC(=O)NN=C(c1ccccc1)c1ccccc1
inactive: [1] 100 % of control | [2] 100 % of control | [3] 100 % of control

CCN(CC)CCNC(=O)Cc1cc(O)c2c(c1O)C(=O)c1ccccc1C2=O
inactive: [13] 106 % of control | [14] 106 % of control | dose: 400.0 mg/kg/injection, schedule: Q04DX003 (ip), vehicle: saline with Tween-80 106 % of control

O=CC1CO1 (centres undefined)
inactive: [15] 109 % of control | dose: 12.5 mg/kg/injection, schedule: Q04DX003 (ip), vehicle: saline 112 % of control | [16] 118 % of control | dose: 25.0 mg/kg/injection, schedule: Q04DX003 (ip), vehicle: saline 104 % of control | dose: 50.0 mg/kg/injection, schedule: Q04DX003 (ip), vehicle: saline 116 % of control

Nc1nnc(-c2ccc(Cl)c(Cl)c2)o1
inactive: dose: 100.0 mg/kg/injection, schedule: Q04DX003 (ip), vehicle: Klucel (hydroxypropylcellulose) (HPC) 100 % of control | dose: 200.0 mg/kg/injection, schedule: Q04DX003 (ip), vehicle: Klucel (hydroxypropylcellulose) (HPC) 105 % of control | dose: 400.0 mg/kg/injection, schedule: Q04DX003 (ip), vehicle: Klucel (hydroxypropylcellulose) (HPC) 115 % of control

NCCC1C2CC3CC(C2)CC1C3 (centres undefined)
inactive: [17] 88 % of control | [18] 88 % of control

c1ccc(C(SN=C2CCCCC2)(c2ccccc2)c2ccccc2)cc1
inactive: [19] 100 % of control | [20] 91 % of control | [21] 90 % of control

OCCN(CCO)CC(O)c1cc(-c2ccccc2)nc2ccccc12 (centres undefined)
inactive: dose: 12.5 mg/kg/injection, schedule: Q01DX005 (ip), vehicle: Klucel (hydroxypropylcellulose) (HPC) 103 % of control | [7] 94 % of control | [8] 102 % of control and 103 % of control | [9] 110 % of control

CC(=O)Nc1nnc(SSc2nnc(NC(C)=O)s2)s1
inactive: [10] 90 % of control | [11] 102 % of control | [12] 94 % of control

CC(=O)Nc1c(Cl)cc2c(c1Cl)Cc1cc(N(CCO)CCO)ccc1-2
inactive: dose: 6.25 mg/kg/injection, schedule: Q01DX009 (ip), vehicle: saline 97 % of control | [15] 93 % of control | [16] 93 % of control | [17] 94 % of control

O=C(OCCN1CCN(CCCN2c3ccccc3Sc3ccc(C(F)(F)F)cc32)CC1)C12CC3CC(CC(C3)C1)C2
inactive: dose: 3.12 mg/kg/injection, schedule: Q01DX009 (ip), vehicle: Klucel (hydroxypropylcellulose) (HPC) 105 % of control | dose: 6.25 mg/kg/injection, schedule: Q01DX009 (ip), vehicle: Klucel (hydroxypropylcellulose) (HPC) 103 % of control and 96 % of control | dose: 12.5 mg/kg/injection, schedule: Q01DX009 (ip), vehicle: Klucel (hydroxypropylcellulose) (HPC) 110 % of control and 112 % of control and 97 % of control | dose: 25.0 mg/kg/injection, schedule: Q01DX009 (ip), vehicle: Klucel (hydroxypropylcellulose) (HPC) 112 % of control | [10] 113 % of control | [11] 118 % of control

COc1ccc(NC(=O)CCC2=CC(=O)CC(c3ccccc3)O2)cc1 (centres undefined)
inactive: [4] 105 % of control | dose: 124.0 mg/kg/injection, schedule: Q01DX005 (ip), vehicle: saline with Tween-80 104 % of control | dose: 240.0 mg/kg/injection, schedule: Q01DX005 (ip), vehicle: saline with Tween-80 104 % of control

Nc1nc(Cl)c(Cl)nc1N
inactive: [1] 110 % of control | dose: 50.0 mg/kg/injection, schedule: Q04DX003 (ip), vehicle: saline with Tween-80 100 % of control | [2] 105 % of control | [13] 100 % of control | [3] 110 % of control | [14] 95 % of control

CC(C)CN1CC(=O)N2Cc3ccccc3CN2C(=O)C1
inactive: [19] 101 % of control | [20] 106 % of control | [21] 103 % of control

O=S1(=O)CC(N2CCCCC2)C2=C(O1)c1ccccc1SC2 (centres undefined)
inactive: [1] 88 % of control | [2] 92 % of control

CCCCCCC(C)N=[N+]([O-])CC(C)OC(C)=O (centres undefined)
inactive: dose: 10.0 mg/kg/injection, schedule: Q01DX009 (ip), vehicle: saline with Tween-80 121 % of control | dose: 20.0 mg/kg/injection, schedule: Q01DX009 (ip), vehicle: saline with Tween-80 105 % of control | dose: 40.0 mg/kg/injection, schedule: Q01DX009 (ip), vehicle: saline with Tween-80 121 % of control

CCOC(=O)C1=C(C(=O)c2ccccc2)C(c2ccc([N+](=O)[O-])cc2)C(C(=O)c2ccccc2)=C(C(=O)OCC)N1
inactive: dose: 7.5 mg/kg/injection, schedule: Q01DX005 (ip), vehicle: Klucel (hydroxypropylcellulose) (HPC) 94 % of control | dose: 15.0 mg/kg/injection, schedule: Q01DX005 (ip), vehicle: Klucel (hydroxypropylcellulose) (HPC) 95 % of control | dose: 30.0 mg/kg/injection, schedule: Q01DX005 (ip), vehicle: Klucel (hydroxypropylcellulose) (HPC) 100 % of control

CC1=C(C)Cn2c(=O)c3cc4ccccc4cc3c(=O)n2C1
inactive: [10] 90 % of control | [11] 90 % of control

CC(=O)OC1C(Br)C2CC1C1(Cl)C(=O)C(Cl)=C(Cl)C(=O)C21Cl (centres undefined)
inactive: [17] 99 % of control | [18] 101 % of control | dose: 200.0 mg/kg/injection, schedule: Q01DX009 (ip), vehicle: saline 99 % of control

CC1(C)CC(=O)C(CSCS)=C(O)C1
inactive: [22] 114 % of control | [23] 99 % of control | [24] 92 % of control

Cc1c(O)c2c(c(O)c1Cc1cccc(CN)c1)C(=O)c1ccccc1C2=O
inactive: dose: 1.56 mg/kg/injection, schedule: Q01DX009 (ip), vehicle: water 91 % of control | dose: 25.0 mg/kg/injection, schedule: Q01DX009 (ip), vehicle: water 89 % of control

CN(/N=C\c1ccccc1)C(=N)N(C)/N=C/c1ccccc1
inactive: [22] 91 % of control | [23] 96 % of control

O=Cc1c[nH]c2ccc(NC(=O)OCc3ccccc3)cc12
inactive: [1] 103 % of control | [2] 89 % of control | [6] 86 % of control

CC(C)(C)c1ccc(NC(=O)c2ccccc2N)cc1
inactive: [19] 101 % of control | [20] 97 % of control | [21] 92 % of control

Cc1c2c(c(C)c3ccccc13)C(O)C(O)c1ccccc1-2 (centres undefined)
inactive: [22] 91 % of control | [23] 91 % of control | [24] 99 % of control

CCCCCCC(=O)/C=C/c1cccc(OCc2ccc(Cl)c(Cl)c2)c1
inactive: [1] 115 % of control | [2] 90 % of control | [3] 97 % of control

Cc1n[nH]c(=O)c(C#N)c1C
inactive: [8] 95 % of control | [9] 100 % of control | dose: 200.0 mg/kg/injection, schedule: Q01DX005 (ip), vehicle: Klucel (hydroxypropylcellulose) (HPC) 95 % of control

CC(=O)OCC#CCN1CCCCC1C (centres undefined)
inactive: dose: 50.0 mg/kg/injection, schedule: Q01DX005 (ip), vehicle: saline 111 % of control | dose: 100.0 mg/kg/injection, schedule: Q01DX005 (ip), vehicle: saline 101 % of control | dose: 200.0 mg/kg/injection, schedule: Q01DX005 (ip), vehicle: saline 103 % of control
